# Assay results taken from US20030104507A1, “Method for detection of ATP” (priority 2001, published 2003).
# System: ATPase activity endogenous to L929 cell lysate
# Experiment: Detergent inhibition of ATPase endogenous to L929 cell lysate (ATP remaining by luciferase luminescence, 22° C.)
# Format: biochemical
# Parameters: key to Relative ATPase Activity, slope det/slope lysate: slope with detergent / slope without; ≥1.0 = 100% activity, 0.5 = 50%
# Conditions: for concentrations which resulted in a 25% or greater decrease in the relative ATPase activity: compared to reactions in the absence of detergent
# Outline: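 L929 lysate (1.5×10^5 cells/ml, four freeze–thaw cycles) held with detergent at final 1.0, 0.5, 0.1 or 0.05% at 22° C; remaining ATP read over time with luciferase-luciferin reagent (100 μM luciferin, 10 mM MgSO4, pH 7.5). Relative ATPase activity = slope of log % ATP remaining vs time with detergent ÷ slope for lysate-only control.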
# [1] = Example 2, 0.002% detergent, 5 min
# [2] = Example 2, 0.002% detergent, 75 min
# [3] = Example 2, 0.002% detergent, 169 min
# [4] = Example 2, 0.002% detergent, 222 min
# [5] = Example 2, 0.002% detergent, 260 min
# [6] = Example 2, 0.01% detergent, 5 min
# [7] = Example 2, 0.01% detergent, 75 min
# [8] = Example 2, 0.01% detergent, 169 min
# [9] = Example 2, 0.01% detergent, 222 min
# [10] = Example 2, 0.01% detergent, 260 min
# [11] = Example 2, 0.02% detergent, 5 min
# [12] = Example 2, 0.02% detergent, 75 min
# [13] = Example 2, 0.02% detergent, 169 min
# [14] = Example 2, 0.02% detergent, 222 min
# [15] = Example 2, 0.02% detergent, 260 min
compound,measurement,setting,value
"CCCCCCCCCCCCOS(=O)(=O)[O-].[Na+] [SDS, Sodium dodecyl sulfate]","Relative ATPase Activity, slope det/slope lysate",0.002 percent detergent,1.010
same,Slope (log percent ATP remaining vs time in minutes),0.002 percent detergent,−0.0064
same,"Relative ATPase Activity, slope det/slope lysate",0.01 percent detergent,0.702
same,Slope (log percent ATP remaining vs time in minutes),0.01 percent detergent,−0.00385
same,Average Relative Light Unit Values,"0.05% detergent, 5 min",1181.17 rlu
same,Percent ATP Remaining,"0.05% detergent, 5 min",100%
same,Average Relative Light Unit Values,"0.05% detergent, 75 min",1060.03 rlu
same,Percent ATP Remaining,"0.05% detergent, 75 min",89.7%
same,Average Relative Light Unit Values,"0.05% detergent, 169 min",949.7 rlu
same,Percent ATP Remaining,"0.05% detergent, 169 min",80.4%
same,Average Relative Light Unit Values,"0.05% detergent, 222 min",921.86 rlu
same,Percent ATP Remaining,"0.05% detergent, 222 min",78.0%
same,Average Relative Light Unit Values,"0.05% detergent, 260 min",803.0 rlu
same,Percent ATP Remaining,"0.05% detergent, 260 min",68.0%
same,"Relative ATPase Activity, slope det/slope lysate",0.05 percent detergent,0.105
same,Slope (log percent ATP remaining vs time in minutes),0.05 percent detergent,−0.0006
same,Average Relative Light Unit Values,"0.1% detergent, 5 min",0.31 rlu
same,Average Relative Light Unit Values,"0.1% detergent, 75 min",0.18 rlu
same,Average Relative Light Unit Values,"0.1% detergent, 169 min",0.21 rlu
same,Average Relative Light Unit Values,"0.1% detergent, 222 min",0.26 rlu
same,Average Relative Light Unit Values,"0.1% detergent, 260 min",0.34 rlu
same,Average Relative Light Unit Values,"0.5% detergent, 5 min",0.00 rlu
same,Average Relative Light Unit Values,"0.5% detergent, 75 min",0.00 rlu
same,Average Relative Light Unit Values,"0.5% detergent, 169 min",0.02 rlu
same,Average Relative Light Unit Values,"0.5% detergent, 222 min",0.00 rlu
same,Average Relative Light Unit Values,"0.5% detergent, 260 min",0.00 rlu
same,Average Relative Light Unit Values,"1.0% detergent, 5 min",0.01 rlu
same,Average Relative Light Unit Values,"1.0% detergent, 75 min",0.00 rlu
same,Average Relative Light Unit Values,"1.0% detergent, 169 min",0.01 rlu
same,Average Relative Light Unit Values,"1.0% detergent, 222 min",0.00 rlu
same,Average Relative Light Unit Values,"1.0% detergent, 260 min",0.01 rlu
same,Average Relative Light Unit Values,[1],5773.39 rlu
same,Percent ATP Remaining,[1],100.00%
same,Average Relative Light Unit Values,[2],1574.34 rlu
same,Percent ATP Remaining,[2],27.27%
same,Average Relative Light Unit Values,[3],278.67 rlu
same,Percent ATP Remaining,[3],4.83%
same,Average Relative Light Unit Values,[4],236.28 rlu
same,Percent ATP Remaining,[4],4.09%
same,Average Relative Light Unit Values,[5],128.58 rlu
same,Percent ATP Remaining,[5],2.23%
same,Average Relative Light Unit Values,[6],13116.20 rlu
same,Percent ATP Remaining,[6],100.00%
same,Average Relative Light Unit Values,[7],10753.03 rlu
same,Percent ATP Remaining,[7],48.62%
same,Average Relative Light Unit Values,[8],12051.63 rlu
same,Percent ATP Remaining,[8],25.80%
same,Average Relative Light Unit Values,[9],11822.03 rlu
same,Percent ATP Remaining,[9],14.20%
same,Average Relative Light Unit Values,[10],11900.73 rlu
same,Percent ATP Remaining,[10],8.79%
same,times more ATP present in the sample after four hours when the detergent was present than when it was absent,"SDS 0.05%, deoxycholate 0.5% and 0.1%",about three to about twenty
same,concentrations which resulted in a 25% or greater decrease in the relative ATPase activity,,≥ 0.01%
"CCCCCCCCCCCC[N+](C)(C)CCCS(=O)(=O)[O-] [Sulfobetaine 3-10, N-Dodecyl-N,N-dimethyl-3-ammonio-1-propanesulfonate]","Relative ATPase Activity, slope det/slope lysate",0.02 percent detergent,1.009
same,Slope (log percent ATP remaining vs time in minutes),0.02 percent detergent,−0.0064
same,Average Relative Light Unit Values,"0.05% detergent, 5 min",6247.31 rlu
same,Percent ATP Remaining,"0.05% detergent, 5 min",100%
same,Average Relative Light Unit Values,"0.05% detergent, 75 min",2270.13 rlu
same,Percent ATP Remaining,"0.05% detergent, 75 min",36.3%
same,Average Relative Light Unit Values,"0.05% detergent, 169 min",1053.56 rlu
same,Percent ATP Remaining,"0.05% detergent, 169 min",16.9%
same,Average Relative Light Unit Values,"0.05% detergent, 222 min",465.03 rlu
same,Percent ATP Remaining,"0.05% detergent, 222 min",7.4%
same,Average Relative Light Unit Values,"0.05% detergent, 260 min",233.19 rlu
same,Percent ATP Remaining,"0.05% detergent, 260 min",3.7%
same,"Relative ATPase Activity, slope det/slope lysate",0.05 percent detergent,1.077
same,Slope (log percent ATP remaining vs time in minutes),0.05 percent detergent,−0.0057
same,Average Relative Light Unit Values,"0.1% detergent, 5 min",6506.61 rlu
same,Percent ATP Remaining,"0.1% detergent, 5 min",100%
same,Average Relative Light Unit Values,"0.1% detergent, 75 min",2367.27 rlu
same,Percent ATP Remaining,"0.1% detergent, 75 min",36.4%
same,Average Relative Light Unit Values,"0.1% detergent, 169 min",1100.37 rlu
same,Percent ATP Remaining,"0.1% detergent, 169 min",16.9%
same,Average Relative Light Unit Values,"0.1% detergent, 222 min",446.29 rlu
same,Percent ATP Remaining,"0.1% detergent, 222 min",6.9%
same,Average Relative Light Unit Values,"0.1% detergent, 260 min",222.22 rlu
same,Percent ATP Remaining,"0.1% detergent, 260 min",3.4%
same,"Relative ATPase Activity, slope det/slope lysate",0.10 percent detergent,1.109
same,Slope (log percent ATP remaining vs time in minutes),0.10 percent detergent,−0.0058
same,Average Relative Light Unit Values,"0.5% detergent, 5 min",6565.98 rlu
same,Percent ATP Remaining,"0.5% detergent, 5 min",100%
same,Average Relative Light Unit Values,"0.5% detergent, 75 min",2405.95 rlu
same,Percent ATP Remaining,"0.5% detergent, 75 min",36.6%
same,Average Relative Light Unit Values,"0.5% detergent, 169 min",1211.13 rlu
same,Percent ATP Remaining,"0.5% detergent, 169 min",18.4%
same,Average Relative Light Unit Values,"0.5% detergent, 222 min",609.75 rlu
same,Percent ATP Remaining,"0.5% detergent, 222 min",9.3%
same,Average Relative Light Unit Values,"0.5% detergent, 260 min",391.64 rlu
same,Percent ATP Remaining,"0.5% detergent, 260 min",6.0%
same,"Relative ATPase Activity, slope det/slope lysate",0.50 percent detergent,0.921
same,Slope (log percent ATP remaining vs time in minutes),0.50 percent detergent,−0.0049
same,Average Relative Light Unit Values,"1.0% detergent, 5 min",7861.36 rlu
same,Percent ATP Remaining,"1.0% detergent, 5 min",100%
same,Average Relative Light Unit Values,"1.0% detergent, 75 min",5703.51 rlu
same,Percent ATP Remaining,"1.0% detergent, 75 min",72.6%
same,Average Relative Light Unit Values,"1.0% detergent, 169 min",4318.46 rlu
same,Percent ATP Remaining,"1.0% detergent, 169 min",54.9%
same,Average Relative Light Unit Values,"1.0% detergent, 222 min",3075.12 rlu
same,Percent ATP Remaining,"1.0% detergent, 222 min",39.1%
same,Average Relative Light Unit Values,"1.0% detergent, 260 min",2193.02 rlu
same,Percent ATP Remaining,"1.0% detergent, 260 min",27.9%
same,"Relative ATPase Activity, slope det/slope lysate",1.00 percent detergent,0.417
same,Slope (log percent ATP remaining vs time in minutes),1.00 percent detergent,−0.0022
same,Average Relative Light Unit Values,[11],6120.5 rlu
same,Percent ATP Remaining,[11],100.00%
same,Average Relative Light Unit Values,[12],1622.61 rlu
same,Percent ATP Remaining,[12],26.51%
same,Average Relative Light Unit Values,[13],291.09 rlu
same,Percent ATP Remaining,[13],4.76%
same,Average Relative Light Unit Values,[14],245.55 rlu
same,Percent ATP Remaining,[14],4.01%
same,Average Relative Light Unit Values,[15],136.43 rlu
same,Percent ATP Remaining,[15],2.23%
same,concentrations which resulted in a 25% or greater decrease in the relative ATPase activity,,≥ 1%
